The numbers were not newly measured in patent US6756047B2, “Method and compositions for treating persistent pulmonary hypertension using aralkyl ester soft drugs” (The University of Toledo, priority 2000, dated 2004), which cites them from elsewhere.

Structures are written as SMILES.

The conditions of data set [1]: eye examination use.
For data set [2] the following is noted: long duration of action; used clinically.

Consider `CN1[C@@H]2CC[C@H]1C[C@@H](OC(=O)C(CO)c1ccccc1)C2` (some centres unmarked) [Atropine, atropine], for which, in data set [1], the duration result is on record as “several hour”.
For the compound `CC(C)NCC(O)COc1cccc2ccccc12` (centres unmarked) [Structure 1, propranolol], the “half-life (duration of action)” value in data set [2] was “several hour”.
